Test results: US7605149B1, “Modulation of the phospholipase A2 pathway as a therapeutic” (University of South Florida, priority 1998, dated 2009)
Read-outs that look alike come from different tables or passages of the source.

How the values were obtained:
[1] = system: rat aortae (aortic rings); assay: Vessel bath vasoactivity assay: ET-1-induced vasoconstriction of rat aortic rings and its enhancement by Aβ or sPLA2; assay type: cell-based; conditions: for effect on sPLA2-induced vasoconstriction: inactivation of sPLA2
Procedure: Vessel experiments. Freshly dissected aortae were prepared from normal male Sprague-Dawley rats (7-8 months old, purchased from Zivic Miller, Zelienople, Pa.) as previously described by Paris et al, Exp Neurol 1998 and Exp Neurol 1999. Rat aortae were segmented into rings and suspended in Kreb's buffer on hooks connected to a tensiometer linked to a MacLab system. Aortic rings were equilibrated for 2 hours, in 7 mL tissue baths containing Kreb's buffer oxygenated with 95% O2: 5% CO2, and thermoregulated to 37° C. A baseline tension of 2 g was applied to each ring, and the first set of aortic rings was pretreated with the various compounds named above either alone or in combination with Aβ peptides. After 5 minutes of incubation in the presence or absence of Aβ, this first set of vessels was subjected to a dose range of ET-1 (from 1 nM to 5 nM). A second set of vessels was treated with 1 μM of Aβ peptides prior to the addition of ET-1. A third set (control) received only ET-1 treatment. Each ET-1 dose was added only after the constriction response to the previous dose had reached a plateau. In all cases the means ±1 standard error (SE) of the percentage vasoconstriction increase over baseline were determined for each dose of ET-1 used.
(§1) Statistical analysis. Analysis of variance (ANOVA) was used to analyze the data, with post-hoc comparisons of means carried out where appropriate by Sheffe's or Bonferonni's methods. As previously described (Paris et al., Neurosci Lett, 1998), a significant interactive term by ANOVA was taken as evidence that both drug x and Aβ are modulating a common signal transduction pathway. […] Levene's test for equality of variance followed by t-test for independent samples was used for single mean comparisons. Alpha levels were set at 0.05 for all analyses. Analyses were performed using SPSS for Windows release 9.5.

[2] = system: intact rat aortae (aortic rings); assay: [3H]AA release in intact rat aortae; assay type: cell-based
Procedure: Measurement of [^3H]AA release in intact rat aortae. Aortic rings (1.5 mm long) were placed in 1 mL of physiological saline solution (PSS, containing 130 mM NaCl, 5 mM KCl, 1.5 mM CaCl2, 1.2 mM MgCl2, 10 mM HEPES, and 10 mM glucose adjusted to pH 7.2 with NaOH) and incubated with 2.5 μCi of [^3H]AA (specific activity of 91.8 Ci/mmol) for 24 h at 4° C. Rat aortae were subsequently washed in 50 mL of Kreb's buffer and then subjected to the vasoactivity assay. Initial background [^3H]AA release was determined following 30 min of equillibration for each aortic ring prior to treatment by removing 200 μL of Kreb's buffer (total volume of 7 mL each) from each bath, and measuring radioactivity (in cpm) after the addition of 1 mL of scintillant (EcoLume, ICN Inc., Calif.) using a liquid scintillation counter (1209 Rackbeta, WALLAC Inc., Md.). Subsequently, aortic rings were treated with sPLA2 alone or Aβ1-40 (1 μM) in the presence or absence of a MEK1/2 inhibitor (PD 98059) or a cPLA2 inhibitor (AACOCF3) for 5 min, or went untreated for the same length of time (control). Quantification of [^3H]AA release was then preformed as described above. All aortic rings were then subjected to a dose range of ET-1 (1, 2.5, and 5 nM), and radioactivity was measured 5 min after the first dose of ET-1 (1 nM), and 20 min after the second (2.5 nM) and third (5 nM) doses of ET-1. Radioactivity incorporated into each ring was determined by placing the aortic ring in 1 mL of scintillant and assaying as described above. Results are expressed as the means ±1 SE of the percentage of [^3H]AA incorporated for each aortic ring [([^3H]AA released—[^3H]AA initial background)/incorporated [^3H]AA].
as §1

N9 microglial cells = assay: Leukotriene B4 (LTB4) ELISA on microglial cell supernatants; assay type: cell-based, murine; conditions: 18 hours, FIG. 23
Procedure: Leukotriene -B4 (LTB4) enzyme-linked immunoabsorbant assay (ELISA). Quantitative determination of LTB4 levels was made using a competitive binding ELISA (R&D Systems, Minneapolis, Minn.) designed to measure LTB4 in cell culture supernatants (as described in Paris et al., Exp Neurol 1999). A murine microglial cell line (N9) was provided by Dr. Paola Ricciardi-Castagnoli (Cellular Pharmacology Center, Milan, Italy) and were grown in RPMI medium supplemented with five percent fetal calf serum, 2 mM glutamine, 100 U/mL penicillin, […] streptomycin and 0.05 mM 2-mercaptoethanol. Microglial cells were seeded at 50,000 cells/well in 6-well plates (Falcon, France) and treated with Aβ1-40 (500 nM), drugs which oppose the PLA2/AA/5-LOX/COX-2 pathway, or untreated (control) and incubated for 18 hours. Cell supernatants were then collected and diluted 10-fold in assay buffer. 50 μL of diluted samples were then used in the assay, and each sample was assayed in duplicate. Manipulations were performed in accordance with the manufacturer's instruction. A spectramax 250 spectrophotometer (Molecular Devices, San Diego, USA) was used to measure absorbance at 405 nm and a standard curve was plotted using a 4-parameter model.
as §1

[3] = system: rat aortae (aortic rings); conditions: cited from earlier work
[4] = 1 μM with 1 μM Aβ1-40, 5 minutes prior to ET-1, FIGS. 7, 9, 10, 12
[5] = 5 μM with 1 μM Aβ1-40, FIGS. 11, 19
[6] = 25 μM with 1 μM Aβ1-40, FIGS. 5, 16

## APP657-676: APP-derived peptide, a known stimulator of Go (EFRHDSGYEVHHQKLVFFAE; UniProt P05067 674-693, looked up, fragment)
[1]; concentration not given
  effect on Aβ vasoactivity: not able to modulate ET-1-induced vasoconstriction or to affect Aβ-vasoactivity
  effect on ET-1-induced vasoconstriction: not able to modulate ET-1-induced vasoconstriction

## CCCCC/C=C\C/C=C\C/C=C\C/C=C\CCCC(=O)O [AA, Arachidonic acid]
[1]; concentration not given
  effect on ET-1-induced vasoconstriction: can enhance ET-1-induced constriction

## COc1cccc2c1cc([N+](=O)[O-])c1c(C(=O)O)cc3c(c12)OCO3 [aristolochic acid]
[1]; high doses (25 μM)
  effect on Aβ vasoactivity: partial blockade of the vasoactive properties of Aβ
[1]; low doses (<10 μM)
  effect on Aβ vasoactivity: unable to affect Aβ vasoactivity

## O=C1O/C(=C/Br)CCC1c1cccc2ccccc12 (centres unmarked) [HELSS, haloenol lactone suicide substrate]
[1]; [4]
  effect on Aβ vasoactivity (Aβ1-40 enhancement of ET-1-induced vasoconstriction): unable to affect Aβ-induced vasoactivity

## p-aminophenyl-α-D-mannopyranoside-bovine serum albumin [mannose-BSA]
[1]
  effect on ET-1-induced vasoconstriction: vasoactive to a similar extent as Aβ

## CCCCC/C=C\C/C=C\C/C=C\C/C=C\CCCC(=O)C(F)(F)F [AACOCF3]
[2]; 1 μM with Aβ1-40 1 μM, FIG. 21
  effect on Aβ-induced [3H]AA release from aortic rings: inhibited

## Oc1ccc(-c2nc(-c3ccncc3)c(-c3ccc(F)cc3)[nH]2)cc1 [SB 202190]
N9 microglial cells; 5 μM with Aβ1-40 500 nM
  effect on Aβ-induced microglial LTB4 release: complete blockade of Aβ-induced microglial LTB4 release
[1]; [5]
  effect on Aβ vasoactivity (Aβ1-40 enhancement of ET-1-induced vasoconstriction): complete inhibition of Aβ vasoactivity

## CC(C)NCC(O)COc1cccc2ccccc12 (centres unmarked) [propanolol]
[1]; concentration not given
  effect on Aβ vasoactivity: unable to block Aβ vasoactivity

## mastoparan
[1]; 5 μM, 5 minutes prior to ET-1 dose range, FIG. 4
  effect on ET-1-induced vasoconstriction: potentiate ET-1-induced vasoconstriction to a similar extent as Aβ

## COc1cccc(-c2cc(=O)c3ccccc3o2)c1N [PD 98059]
N9 microglial cells; 25 μM with Aβ1-40 500 nM
  effect on Aβ-induced microglial LTB4 release: complete blockade of Aβ-induced microglial LTB4 release
[2]; 25 μM with Aβ1-40 1 μM, FIG. 22
  effect on Aβ-induced [3H]AA release from aortic rings: blocked
[1]; [6]
  effect on Aβ vasoactivity (Aβ1-40 enhancement of ET-1-induced vasoconstriction): complete blockade
[1]; 25 μM with 1 μM Aβ1-42, FIG. 17
  effect on Aβ1-42 vasoactivity: complete blockade
[1]; 25 μM with 2.5 U/mL sPLA2, FIG. 18
  effect on sPLA2 enhancement of ET-1-induced vasoconstriction: completely inhibit sPLA2 enhancement of ET-1-induced vasoconstriction

## CCCCCCCC/C=C\CCCCCCCCOCCOP(=O)([O-])OCC[N+](C)(C)C [oleylox., oleyloxyethylphosphocholine]
[1]; [4]
  effect on Aβ vasoactivity (Aβ1-40 enhancement of ET-1-induced vasoconstriction): completely blocks
[1]; 1 μM with Aβ1-42
  effect on Aβ1-42 vasoactivity: completely blocks
[1]; concentration not given
  effect on sPLA2-induced vasoconstriction: inhibition of sPLA2-induced vasoconstriction

## pertussis toxin
[1]; concentration not given
  effect on Aβ vasoactivity: insensitive

## CS(=O)(=O)Nc1ccc([N+](=O)[O-])cc1OC1CCCCC1 [NS-398]
N9 microglial cells; 50 μM with Aβ1-40 500 nM
  effect on Aβ-induced microglial LTB4 release: complete blockade of LTB4 release
[1]; [5]
  effect on Aβ vasoactivity (Aβ1-40 enhancement of ET-1-induced vasoconstriction): able to block Aβ vasoactivity

## isotetrandrine
[1]; [6]
  effect on Aβ vasoactivity (Aβ1-40 enhancement of ET-1-induced vasoconstriction): partially blocked Aβ vasoactivity

## O=c1c(O)c(-c2ccc(O)c(O)c2)oc2cc(O)cc(O)c12 [Quercetin, quercetin]
[1]; 10 μM with 1 μM Aβ1-40, FIGS. 8, 14
  effect on Aβ vasoactivity (Aβ1-40 enhancement of ET-1-induced vasoconstriction): unable to block Aβ vasoactivity

## diacylglycerol [DAG]
[1]; 10 μM, 5 minutes prior to ET-1 dose range, FIG. 14
  effect on ET-1-induced vasoconstriction: able to potentiate ET-1-induced vasoconstriction

## CC[C@H](C)[C@H](NC(=O)CN)C(=O)NCC(=O)N[C@@H](C)C(=O)N[C@H](C(=O)N[C@@H](CC(C)C)C(=O)N[C@@H](CCCCN)C(=O)N[C@H](C(=O)N[C@@H](CC(C)C)C(=O)N[C@H](C(=O)N[C@H](C(=O)NCC(=O)N[C@@H](CC(C)C)C(=O)N1CCC[C@H]1C(=O)N[C@@H](C)C(=O)N[C@@H](CC(C)C)C(=O)N[C@H](C(=O)N[C@@H](CO)C(=O)N[C@@H](Cc1c[nH]c2ccccc12)C(=O)N[C@H](C(=O)N[C@@H](CCCCN)C(=O)N[C@@H](CCCNC(=N)N)C(=O)N[C@@H](CCCCN)C(=O)N[C@@H](CCCNC(=N)N)C(=O)N[C@@H](CCC(N)=O)C(=O)N[C@@H](CCC(N)=O)C(N)=O)[C@@H](C)CC)[C@@H](C)CC)[C@@H](C)O)[C@@H](C)O)C(C)C)C(C)C [Melittin]
[1]; 1 μM, 5 minutes prior to ET-1 dose range (1-5 nM), FIG. 3
  effect on ET-1-induced vasoconstriction: potentiate ET-1-induced vasoconstriction to a similar extent as Aβ

## Aβ1-42: soluble β-amyloid peptide with forty-two amino acids, obtained from QCB
[3]; freshly solubilized, previously shown (Crawford et al., 1998)
  magnitude of constriction induced by ET-1 in isolated mammalian vessels: increase the magnitude of constriction induced by ET-1

## CC(C)c1ccc2c(c1)c(SC(C)(C)C)c(CC(C)(C)C(=O)O)n2Cc1ccc(Cl)cc1 [MK-886]
[1]; [4]
  effect on Aβ vasoactivity (Aβ1-40 enhancement of ET-1-induced vasoconstriction): markedly inhibits Aβ vasoactivity

## CN(C)CCCn1cc(C2=C(c3c[nH]c4ccccc34)C(=O)NC2=O)c2ccccc21 [bisindolylmaleimide I]
[1]; 1.5 μM with 1 μM Aβ1-40, FIG. 15
  effect on Aβ vasoactivity (Aβ1-40 enhancement of ET-1-induced vasoconstriction): reduction in Aβ vasoactivity was merely additive
[1]; 1.5 μM, 5 minutes prior to ET-1 dose range, FIG. 15
  effect on ET-1-induced vasoconstriction: statistically interactive reduction in ET-1-induced vasoconstriction

## O[C@@H](CS)[C@@H](O)CS (racemic) [dithiothreithol]
[1]; concentration not given
  effect on sPLA2-induced vasoconstriction: inhibition of sPLA2-induced vasoconstriction

## O=C(NCCCCCCNC(=O)ON=C1CCCCC1)ON=C1CCCCC1 [RHC-80267]
[1]; 8 μM with 1 μM Aβ1-40, FIG. 13
  effect on Aβ vasoactivity (Aβ1-40 enhancement of ET-1-induced vasoconstriction): not able to modulate ET-1-induced vasoconstriction or to affect Aβ enhancement of ET-1-induced vasoconstriction
[1]; 8 μM, 5 minutes prior to ET-1 dose range, FIG. 13
  effect on ET-1-induced vasoconstriction: not able to modulate ET-1-induced vasoconstriction

## Nc1ncnc2c1ncn2C1CCCO1 (centres unmarked) [SQ-22536]
[3]; adenylyl cyclase inhibitor, reference given
  effect on Aβ vasoactivity: does not have any effect on the vasoactive properties of Aβ
